In PubChem BioAssay (NCI):
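Interpolation was linear, between the two tested concentrations surrounding the appropriate level; five concentrations were tested over 48 hours in 96-well plates. At the GI50, growth is halved. TGI: concentration producing complete growth inhibition.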 Where a SMILES comes first, the peptide text is derived from it. [ ]: non-standard residue; d: D form. ξ: configuration not given here. ξLac(3-iPr) = CC(C)CC(O)C(=O)O; NMeV = CN[CH](C(=O)O)C(C)C; NMeA = CN[CH](C)C(=O)O; βAla = NCCC(=O)O

Columns and labels:
Assay in all cases: NCI anticancer screen, dose series, 48 h
IGROV1 ovarian = test system: IGROV1 ovarian
HCT-116 colon = test system: HCT-116 colon
A549 NSCLC = test system: A549 NSCLC
KM12 colon = test system: KM12 colon
MOLT-4 leukemia = test system: MOLT-4 leukemia
SK-MEL-2 melanoma = test system: SK-MEL-2 melanoma
OVCAR-8 ovarian = test system: OVCAR-8 ovarian
RPMI-8226 leukemia = test system: RPMI-8226 leukemia
SN12C renal = test system: SN12C renal
SW-620 colon = test system: SW-620 colon
U251 CNS = test system: U251 CNS
SK-MEL-5 melanoma = test system: SK-MEL-5 melanoma

SMILES | GI50 (IGROV1 ovarian) [µM] | TGI (IGROV1 ovarian) [µM] | GI50 (HCT-116 colon) [µM] | TGI (HCT-116 colon) [µM] | GI50 (A549 NSCLC) [µM] | TGI (A549 NSCLC) [µM] | GI50 (KM12 colon) [µM] | TGI (KM12 colon) [µM] | GI50 (MOLT-4 leukemia) [µM] | TGI (MOLT-4 leukemia) [µM] | GI50 (SK-MEL-2 melanoma) [µM] | TGI (SK-MEL-2 melanoma) [µM] | GI50 (OVCAR-8 ovarian) [µM] | TGI (OVCAR-8 ovarian) [µM] | GI50 (RPMI-8226 leukemia) [µM] | TGI (RPMI-8226 leukemia) [µM] | TGI (SN12C renal) [µM] | TGI (SW-620 colon) [µM] | TGI (U251 CNS) [µM] | TGI (SK-MEL-5 melanoma) [µM]
N#C/C(=C\c1ccc(Br)cc1)n1nnc2cc(Cl)c(Cl)cc21 | 2 | 4.53 | 1.43 | 3.08 | 3.1 | > 100 | 2.92 | > 100 | 2.51 | > 100 | 2.08 | 4.86 | 2.17 | > 100 | 1.42 | 4.38 | – | – | – | –
CN=C(N)c1ccc(N=C(N)c2ccc(C(N)=Nc3ccc(C(N)=NC)cc3)cc2)cc1 | – | > 100 | – | – | – | > 100 | – | > 100 | – | > 100 | – | > 100 | – | > 100 | – | > 100 | > 100 | > 100 | > 100 | > 100
CO/N=C\c1cc(O)c(O)c(/C=N/OC)c1 | – | > 100 | – | > 100 | – | > 100 | – | > 100 | – | > 100 | – | > 100 | – | > 100 | – | > 100 | > 100 | > 100 | > 100 | > 100
O=C(N/N=C/c1ccc([N+](=O)[O-])cc1)Nc1ccc(Br)cc1 | – | > 100 | – | > 100 | – | > 100 | – | > 100 | – | > 100 | – | > 100 | – | > 100 | – | > 100 | > 100 | > 100 | > 100 | > 100
C[N+](C)(C)c1cc2c(nn1)Nc1ccccc1S2 | – | 81.2 | – | 66 | – | > 100 | – | > 100 | – | 44.2 | – | 37.1 | – | 77.9 | – | 36 | > 100 | > 100 | 63.9 | 29.9
CCC(C)C1NC(=O)C2CCCN2C(=O)C(CC(C)C)OC(=O)CCNC(=O)C(C)N(C)C(=O)C(C(C)C)N(C)C1=O (configuration not stated) (cyclo([ξLac(3-iPr)]PI[NMeV][NMeA][βAla]); configuration not given here) | – | > 100 | – | 19.6 | – | > 100 | – | 45.5 | – | 21 | – | 8.81 | – | 29.2 | – | 8.15 | > 100 | > 100 | > 100 | 3.27
O=C(c1ccccc1)C1C(c2ccccc2)N1S(=O)(=O)c1ccccc1 (configuration not stated) | – | > 100 | – | > 100 | – | > 100 | – | > 100 | – | > 100 | – | > 100 | – | > 100 | – | > 100 | > 100 | > 100 | > 100 | > 100
Cc1ccc2c(ccc(/C=C\c3cc(C)c4cccnc4c3O)[n+]2C)c1 | – | > 100 | – | 19.6 | – | 40.9 | – | 31.6 | – | 28.4 | – | – | – | 24.1 | – | 21.6 | 24.7 | 30.1 | 68.7 | 2.98
CCOC(=O)c1c(C)n(C)c2c1cc(O)c1[nH]c3c(c12)CCCC3 | – | 37.2 | – | 50.3 | – | 58.7 | – | 37.3 | – | 45.6 | – | 37 | – | 66.3 | – | 18.7 | 61.3 | 44.1 | 36.8 | 25.6
Cc1nc2[nH]ncn2c(=O)c1CCCl | – | > 10 | – | > 10 | – | > 10 | – | – | – | > 10 | – | > 10 | – | > 10 | – | > 10 | > 10 | > 10 | > 10 | > 10
Clc1ccc(C[P+]2(c3ccccc3)CCCCC2)cc1 | – | > 100 | – | > 100 | – | > 100 | – | > 100 | – | > 100 | – | > 100 | – | > 100 | – | > 100 | > 100 | > 100 | > 100 | 43.3
C[C@]12CC[C@@H]3c4ccc(O)cc4CC[C@H]3[C@@H]1CC[C@@H]2OC(=O)CCc1ccccc1 | – | 43.9 | – | 48.4 | – | 52.9 | – | 78.7 | – | 40.3 | – | 30.8 | – | 51 | – | 35.6 | 49.6 | 64.7 | 38.1 | 33.7
CCN(CC)c1ccc2nc3ccc(N=Nc4c(O)ccc5ccccc45)cc3[n+](-c3ccccc3)c2c1 | – | > 100 | – | > 100 | – | > 100 | – | > 100 | – | > 100 | – | > 100 | – | > 100 | – | > 100 | > 100 | > 100 | > 100 | > 100
COc1cc(C(=O)CC2OC(=O)C(Cl)=C2Cl)ccc1Cl (configuration not stated) | – | > 100 | – | > 100 | – | > 100 | – | > 100 | – | > 100 | – | > 100 | – | > 100 | – | > 100 | > 100 | > 100 | > 100 | > 100
OCc1cc2ccncc2c2c1[nH]c1ccccc12 | – | 17.1 | – | 15.7 | – | 24.8 | – | > 100 | – | > 100 | – | 67.5 | – | 49.3 | – | 37.2 | 30.3 | 19.7 | 18.9 | 25.1
Clc1ccc(OCc2nnc3sc(-c4ccc(-c5ccc(Cl)cc5Cl)o4)nn23)cc1 | – | > 100 | – | > 100 | – | > 100 | – | > 100 | – | > 100 | – | > 100 | – | > 100 | – | > 100 | > 100 | > 100 | > 100 | > 100
CC1(C)N=C(N)N=C(N)N1c1cccc(C(=O)Nc2ccc(S(=O)(=O)F)cc2)c1 | – | > 100 | – | > 100 | – | > 100 | – | > 100 | – | > 100 | – | > 100 | – | > 100 | – | > 100 | > 100 | > 100 | > 100 | > 100
Cc1ccc(C2COc3cc(O)c(O)cc3C2)cc1 (configuration not stated) | – | 38.5 | – | 23.7 | – | 192 | – | 127 | – | 18.6 | – | 57.3 | – | 44.7 | – | 37.9 | 103 | 34.5 | 94.3 | 105
O=C1/C(=C/c2ccc(Oc3ccccc3)cc2)N=C(c2ccccc2)N1c1ccc(S(=O)(=O)Nc2nccs2)cc1 | – | – | – | 35.4 | – | > 100 | – | 53.7 | – | 71.2 | – | 16.1 | – | – | – | 32.3 | > 100 | > 100 | > 100 | 49.8
O=C1c2ccccc2C(=O)c2c(Nc3cc4c5c(ccc6c7ccc8c9c(cc(Nc%10cccc%11c%10C(=O)c%10ccccc%10C%11=O)c(c3c56)c97)-c3ccccc3C8=O)C(=O)c3ccccc3-4)cccc21 | – | > 100 | – | > 100 | – | > 100 | – | > 100 | – | > 100 | – | > 100 | – | > 100 | – | > 100 | > 100 | > 100 | 55 | > 100
O=C(O)CCC(N=NNc1ccc(-c2nc3ccccc3[nH]2)cc1)C(=O)O (configuration not stated) | – | > 100 | – | > 100 | – | > 100 | – | > 100 | – | > 100 | – | > 100 | – | > 100 | – | > 100 | > 100 | > 100 | > 100 | > 100
CC(=O)n1cc(OP(=O)(Oc2ccccc2)Oc2ccccc2)c2ccccc21 | – | > 100 | – | 92.2 | – | > 100 | – | > 100 | – | 50.9 | – | 77 | – | > 100 | – | 42.2 | > 100 | > 100 | > 100 | 40.9
Oc1c(Br)cc(/C=C/c2cccc(/C=C/c3cc(Br)c(O)c(Br)c3)n2)cc1Br | – | 27.7 | – | 21 | – | 14.9 | – | 25.2 | – | 14.7 | – | 20.1 | – | 41.7 | – | 27.5 | 24.3 | 50.6 | 21.2 | 19.8
CC(NC(=O)c1ccc(NP(=O)(OCc2ccc([N+](=O)[O-])o2)N(C)CCCCCl)cc1)c1ccc(OCC2CCCCC2)c(C(N)=O)c1 (configuration not stated) | – | 45.9 | – | 31.6 | – | 33.2 | – | 32 | – | 68.8 | – | 49.3 | – | > 100 | – | 21.1 | 47.5 | 86.8 | 49.9 | 17
